Results as given in EP0487030A2, “Process of optical resolution for the preparation of an optically active cyclic amine” (SHIONOGI SEIYAKU KABUSHIKI KAISHA trading under the name of …, priority 1990, dated 1992).
Converted amounts (≈) assume the structure as drawn. Read-outs that look alike come from different tables or passages of the source.

Key:
Test in all cases: Minimum growth inhibitory concentration, method of the Japan Society of Chemotherapy
Type in all cases: cell-based
Streptococcus pneumoniae = conditions: bacteria D: Streptococcus pneumoniae; bacteria ×10⁶/ml
Description: (§1) The results are shown in Table 1. • (A) : Staphylococcus aureus SR3131 • (B) : Staphylococcus aureus SR3637 • (C) : Staphylococcus aureus SR57690FLX-R* • (D) : Streptococcus pneumoniae • (E) : Streptococcus faecalis SR58180FLX-R* • (F) : Escherichia coli EC-7437 • (G) : Escherichia coli SR5038 OFLX-R* * : ofloxacin resistant bacteria

[1] = tested on: Staphylococcus aureus SR57690FLX-R; conditions: SR57690FLXR, read-out: Minimum Inhibitory Concentration
Description: as §1

[2] = tested on: Staphylococcus aureus SR3131; conditions: bacteria A: Staphylococcus aureus SR3131; bacteria ×10⁶/ml
Description: as §1

[3] = tested on: Escherichia coli SR5038 OFLX-R; conditions: SR5038OFLXR, read-out: Minimum Inhibitory Concentration
Description: as §1

Escherichia coli EC-7437 = conditions: EC7437; bacteria F: Escherichia coli EC-7437; bacteria ×10⁶/ml
Description: as §1

[4] = tested on: Staphylococcus aureus SR3637; conditions: bacteria B: Staphylococcus aureus SR3637; bacteria ×10⁶/ml
Description: as §1

[5] = tested on: Streptococcus faecalis SR58180FLX-R; conditions: Enterococcus faecalis, SR58180FLXR, read-out: Minimum Inhibitory Concentration
Description: as §1

Row | SMILES | MIC (Streptococcus pneumoniae) | MIC [1] | MIC [2] | MIC ([3]; bacteria G: Escherichia coli SR5038 OFLX-R, ofloxacin resistant, bacteria ×10⁶/ml) | MIC (Escherichia coli EC-7437) | MIC [4] | MIC [5] | MIC ([3]; Escherichia coli)
1 | CC1COc2c(N3CCN(C)CC3)c(F)cc3c(=O)c(C(=O)O)cn1c23 (stereo not drawn) [Ofloxacin] | 1.6 µg/mL (≈ 4.43 µM) | 50 µg/mL (≈ 138 µM) | 0.4 µg/mL (≈ 1.11 µM) | 50 µg/mL (≈ 138 µM) | < 0.02 µg/mL | 0.4 µg/mL (≈ 1.11 µM) | 100 µg/mL (≈ 277 µM) | 
2 | C=C1CN(c2c(F)cc3c(=O)c(C(=O)O)cn(C4CC4)c3c2F)C[C@H]1NC [Compound 1, 7-((-)-(S)-3-Methylamino-4-methylenepyrrolidine)-1-cyclopropyl-6,8-difluoro-1,4-dihydro-4-oxo-3-quinolinecarboxylic acid] | 0.2 µg/mL (≈ 0.533 µM) | 6.3 µg/mL (≈ 16.8 µM) | 0.05 µg/mL (≈ 0.133 µM) |  | < 0.003 µg/mL | 0.05 µg/mL (≈ 0.133 µM) | 6.3 µg/mL (≈ 16.8 µM) | 12.5 µg/mL (≈ 33.3 µM)
3 | C=C1CN(c2c(F)cc3c(=O)c(C(=O)O)cn(C4CC4)c3c2F)CC1NC (racemic) [Racemate of the compound 1] | 0.4 µg/mL (≈ 1.07 µM) | 6.3 µg/mL (≈ 16.8 µM) | 0.1 µg/mL (≈ 0.266 µM) |  | 0.006 µg/mL (≈ 0.016 µM) | 0.1 µg/mL (≈ 0.266 µM) | 12.5 µg/mL (≈ 33.3 µM) | 12.5 µg/mL (≈ 33.3 µM)
